Results: PMC11091220, “Metabolism-driven in vitro/in vivo disconnect of an oral ERɑ VHL-PROTAC” (Communications Biology, 2024)

Assays:
[1] = molecular target: T1, ERα (Homo sapiens, UniProt P03372); assay: Hypoxia studies, ERα degradation in MCF7 cells; format: cell-based; settings: for reduction in ERα levels: MCF7, 48 h
T1 construct: endogenous in cells; host or cells: MCF7 (also MCF7 engineered to express Cas9)
T1 sequence (P03372 1-595): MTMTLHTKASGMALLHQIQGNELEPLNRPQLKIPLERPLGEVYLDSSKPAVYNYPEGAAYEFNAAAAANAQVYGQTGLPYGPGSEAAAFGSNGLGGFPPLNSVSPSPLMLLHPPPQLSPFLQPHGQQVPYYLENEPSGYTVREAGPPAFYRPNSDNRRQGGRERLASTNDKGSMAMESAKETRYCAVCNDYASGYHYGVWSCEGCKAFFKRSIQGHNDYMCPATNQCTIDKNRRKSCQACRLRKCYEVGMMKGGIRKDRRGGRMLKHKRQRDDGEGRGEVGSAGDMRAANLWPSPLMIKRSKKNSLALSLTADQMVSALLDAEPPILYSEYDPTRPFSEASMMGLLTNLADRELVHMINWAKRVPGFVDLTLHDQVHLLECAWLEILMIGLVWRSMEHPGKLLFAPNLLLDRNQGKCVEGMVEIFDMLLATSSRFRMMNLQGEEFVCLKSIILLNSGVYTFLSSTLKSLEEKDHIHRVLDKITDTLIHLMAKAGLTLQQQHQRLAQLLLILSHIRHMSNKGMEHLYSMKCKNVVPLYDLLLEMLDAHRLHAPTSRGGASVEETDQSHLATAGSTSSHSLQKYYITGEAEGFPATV
Procedure: MCF7 cells were seeded into 12-well tissue culture-treated plates at 0.5x10^6 cells/well in phenol red-free RPMI media containing 5% (volume/volume [v/v]) charcoal-stripped FBS (F6765, Sigma) and left to adhere overnight. The hypoxia-treated plates were transferred to a Thermo Heracell 150 Tri-gas Incubator set at 2% O2 and allowed to equilibrate to the lower oxygen level overnight. Cells were treated with compound or 0.1% DMSO vehicle control for 48 hours prior to being lysed in Pierce RIPA buffer (Thermo Scientific), supplemented with protease and phosphatase inhibitors. Lysis was carried out immediately after removal from the Tri-gas incubator to prevent the rapid degradation of HIF1α on re-exposure to the higher oxygen levels. Protein expression was determined by standard western blotting procedures as described above.

[2] = system: ER-regulated genes; assay: Gene expression analysis of ER-regulated genes (qPCR), MCF7 and CAMA1 cells; format: cell-based; settings: 100 nM, 0.1 nM estradiol, 24 hours
Procedure: MCF7 and CAMA1 cells were plated at 1.2 x 10^6 cells/well into 6-well TC-treated plates in phenol red-free RPMI containing 5% charcoal-stripped FBS (F6765, Sigma) and treated with 0.1 nM estradiol in the presence of 100 nM fulvestrant, 100 nM AZD9833, 100 nM AZ’6421 or DMSO control for 24 hours. A non-estradiol-treated control was also included with 3 biological replicates per condition. Samples were harvested in 1 mL of QIAzol Lysis Buffer and snap-frozen. RNA was extracted using the RNeasy 96 QIAcube HT total RNA Cell with DNAse treatment following manufacturer instructions. Samples were randomized over 96-well plates. RNA concentration was quantified using the Qubit RNA BR kit (# Q10213 Invitrogen) and RNA integrity was analyzed on a bioanalyzer using the RNA 6000 Nano Kit (# 5067-1511-Agilent) following the manufacturer’s instructions. Targeted gene expression was performed using a 48 × 48 or 96 × 96 Fluidigm dynamic array (Fluidigm, San Francisco CA, USA) and Taqman primers (Thermo Scientific, Waltham, MA). […] The Fluidigm Array was then primed and loaded on an IFC Controller and quantitative PCR (qPCR) experiments were run on the Biomark System, using the standard Default_10 min_HotStart protocol or M96_default protocol for 48 × 48 or 96 × 96 chips, respectively. Data were collected and analysed using the Fluidigm Real-Time PCR Analysis software to generate the Ct values. […]

**Q.** `Cc1ncsc1-c1ccc(CNC(=O)[C@@H]2C[C@@H](O)CN2C(=O)[C@@H](NC(=O)COCCCOCCCOc2cc(F)c([C@@H]3c4[nH]c5ccccc5c4C[C@@H](C)N3CC(C)(C)F)c(F)c2)C(C)(C)C)cc1` [Compound 5] was tested. Which “reduction in ERα levels” value ([1]; 10 nM, hypoxic (2% O2)) did it give?
**A.** Its value is 99%.

**Q.** What about the “reduction in ERα levels” value ([1]; 10 nM, normoxic) of the same compound?
**A.** The value was 98%.

**Q.** What about the “ERa levels (% of vehicle control)” value ([1]; Hypoxic, 0.1 nM) of the same compound?
**A.** Its value is 45.941%.

**Q.** And the “ERa levels (% of vehicle control)” value ([1]; Hypoxic, 1 nM)?
**A.** Its value is 5.353%.

**Q.** And the “ERa levels (% of vehicle control)” value ([1]; Hypoxic, 10 nM)?
**A.** Its value is 0.903%.

**Q.** And the “ERa levels (% of vehicle control)” value ([1]; Hypoxic, 100 nM)?
**A.** The value was 0.157%.

**Q.** And the “ERa levels (% of vehicle control)” value ([1]; Normoxic, 0.1 nM)?
**A.** Its value is 31.081%.

**Q.** What about the “ERa levels (% of vehicle control)” value ([1]; Normoxic, 1 nM) of the same compound?
**A.** Its value is 8.315%.

**Q.** What about the “ERa levels (% of vehicle control)” value ([1]; Normoxic, 10 nM) of the same compound?
**A.** The value was 1.645%.

**Q.** And the “ERa levels (% of vehicle control)” value ([1]; Normoxic, 100 nM)?
**A.** Its value is 0.645%.

**Q.** And the “expression of ER-regulated genes” value [2]?
**A.** Its value is “effectively supressed the expression of a range of ER-regulated genes”.
